Consider four compounds from patent US20080249080A1, “Benzodiazepine Derivatives and Uses Thereof on Medical Field” (priority 2005, published 2008).

Structures are written as SMILES. “Also recorded” adds a separate entry of the source.

For assay [1], the system named is bcr-abl protein. Nature of the assay: Western blot, bcr-abl protein expression. Type of assay: cell-based, human. The conditions noted are these: after 16 hours of treatment; FIG. 4. As to the method:
(§1) Moreover, in order to elucidate the apoptotic pathway triggered by these two substances, Western Blotting experiments and tyrosine-kinase assays were carried out and evidenced that: […]
In general terms: A western blot detects proteins with antibodies after separation by electrophoresis.

In assay [2] the test system is R2C cell line (rat Leydig tumour). The assay is described as follows: DNA fragmentation, R2C cell line. Type of assay: cell-based. The conditions noted are these: high concentrations (10 μM and 50 μM), FIG. 1 C.
Assay [3] has as its system K562 (human erythroleucemic cell line). The assay is described as follows: Apoptosis by propidium iodide flow cytofluorimetry, K562. The conditions noted are these: 10 μM; for percentage of the apoptotic cells in comparison with non treated cells: FIGS. 7-9; for time after which apoptosis is induced: propidium iodide, cytofluorimeter. It counts as cell-based. As to the method: (§2) The used cellular lines are: K562 (human erythroleucemic cell line), HL60 (human acute promyelocytic leukemia cell line), Jurkat (cell line from acute lymphoblastic T variant leukemias), U937 (acute promyelocitic leukemia cell line) and Glivec resistant K562 (this cell line was supplied kindly by Prof. Carlo Gambacorti-Passerini of the Dipartimento of Clinica Medica, Università of Milan-Bicocca, Monza, Italy) (Gambacorti-Passerini CB, et al, 2002).
(§3) The cell lines were incubated with RS678 and RS779 synthetic compounds at 10 μM concentration for 8, 16 and 24 hours, subsequently washed with PBS and 2.5 mg/ml of propidium iodide. This phenanthridine dye, when intercalated into double-stranded DNA forms a sufficiently stable complex that under excitation emits a red fluorescent light. By means of this coloration it is possible to discriminate in an heterogenous population cells with different DNA contents and therefore to estimate the distribution of the cellular populations based on their DNA contents and whether possibly, as a result from pharmacological treatments, alterations at level of cell cycle have manifested. The labeled cell lines were analyzed using flow FACSort cytofluorimeter.

Assay [4] relates to U937 (acute promyelocitic leukemia cell line). The assay is described as follows: Apoptosis by propidium iodide flow cytofluorimetry, U937. Type of assay: cell-based. The conditions noted are these: 10 μM; for percentage of the apoptotic cells in comparison with non treated cells: FIGS. 7-9; for time after which apoptosis is induced: propidium iodide, cytofluorimeter. As to the method:
as §2, §3

In assay [5] the test system is Jurkat (cell line from acute lymphoblastic T variant leukemias). The assay is described as follows: Apoptosis by propidium iodide flow cytofluorimetry, Jurkat. Type of assay: cell-based. The conditions noted are these: 10 μM; for percentage of the apoptotic cells in comparison with non treated cells: FIGS. 7-9; for time after which apoptosis is induced: propidium iodide, cytofluorimeter. As to the method:
as §2, §3

The subject of assay [6] is caspase 9. The assay is described as follows: Western blot, caspase 9 activation in K562. The conditions noted are these: FIG. 3. Type of assay: cell-based, human. On the procedure: (§4) Moreover, in order to elucidate the apoptotic pathway triggered by these two substances, Western Blotting experiments and tyrosine-kinase assays were carried out and evidenced that: (i) these compounds activate specific molecules involved in the apoptotic process (caspase 9 and caspase 8) (FIG. 3);

Assay [7] has as its system HL60 (human acute promyelocytic leukemia cell line). The assay is described as follows: Apoptosis by propidium iodide flow cytofluorimetry, HL60. It counts as cell-based. The conditions noted are these: 10 μM; for percentage of the apoptotic cells in comparison with non treated cells: FIGS. 7-9; for time after which apoptosis is induced: propidium iodide, cytofluorimeter. As to the method: as §2, §3

The subject of assay [8] is mixed lymphocytic cultures from marrow or peripheral blood of patients suffering from chronic myelogenous leukemia. The assay is described as follows: DNA fragmentation, mixed lymphocytic cultures of CML patients. Type of assay: cell-based, human. The conditions noted are these: 10 μM.
Assay [9] has as its system ARO anaplastic thyroid carcinoma cell line. Nature of the assay: DNA fragmentation, ARO. The conditions noted are these: 10 μM, 24 and 48 hours. Type of assay: cell-based, human. On the procedure:
(§5) The authors also have tested compounds according to the invention, in particular RS-678 and RS-779 compounds, also on OVCAR3 ovary carcinoma cell lines, ARO anaplastic thyroid and NPA papillary thyroid human carcinoma cell lines.
(§6) Subsequently, the same cell lines, except OVCAR3, were tested with fourteen new synthetic compounds at 10 μM concentration for 24 and 48 hours: eleven induced the expected cellular death.

The test system of assay [10] is K562 cell line. Nature of the assay: DNA fragmentation, K562 leukemic cell line. It counts as cell-based, human. The conditions noted are these: 5, 10, 15 μM, 8, 16 and 24 hours, FIG. 1 A, B.
In assay [11] the test system is NPA papillary thyroid carcinoma cell line. Nature of the assay: DNA fragmentation, NPA. Type of assay: cell-based, human. The conditions noted are these: 10 μM, 24 and 48 hours. On the procedure:
as §5, §6

The subject of another assay is caspase 8. Nature of the assay: Western blot, caspase 8 activation in K562. Type of assay: cell-based, human. The conditions noted are these: FIG. 3. As to the method: as §4
Assay [12] addresses T1, bcr-abl protein (Homo sapiens, UniProt P00519).
T1 construct: endogenous in cells; host or cells: K562; the other entry of the earlier key: BCR (P11274, Breakpoint cluster region protein)
Nature of the assay: Tyrosine-kinase assay, bcr-abl phosphorylation pattern. Type of assay: cell-based. The conditions noted are these: FIG. 4. On the procedure: as §1

Assay [13] relates to OVCAR3 ovary carcinoma cell line. The assay is described as follows: DNA fragmentation, OVCAR3. It counts as cell-based, human. The conditions noted are these: 10 μM, 24 and 48 hours.
Description: as §5

Another assay relates to Glivec resistant K562. The assay is described as follows: Apoptosis by propidium iodide flow cytofluorimetry, Glivec resistant K562. It counts as cell-based, human. The conditions noted are these: 10 μM; for percentage of the apoptotic cells in comparison with non treated cells: FIGS. 7-9; for time after which apoptosis is induced: propidium iodide, cytofluorimeter. On the procedure:
as §2, §3

The test system of assay [14] is RET/V804L and RET/V804M mutants. The conditions noted are these: cited from earlier work.
Assay [15] has as its system RET/C634R and RET/M918T mutants. The conditions noted are these: cited from earlier work.
Assay [16] concerns RET/E768D, RET/L790F, RET/Y791F, RET/A883F and RET/S891A mutants. The conditions noted are these: cited from earlier work.
The next assay addresses RET kinase (Homo sapiens, UniProt P07949). The conditions noted are these: cited from earlier work.
The subject of assay [17] is RET/V804L and RET/V804M transformed cells. The conditions noted are these: same concentration (1 μl of ZD6474); cited from earlier work.
In assay [18] the test system is RET/C634R transformed RAT1 fibroblasts. The conditions noted are these: 1 μl of ZD6474; cited from earlier work.
In a further assay the test system is NPA cell line. The assay is described as follows: Percentage of apoptosis, NPA. Type of assay: cell-based, human. The conditions noted are these: after 24 hours.
The test system of assay [19] is caspase 9. The assay is described as follows: Western blot, caspase 9 in CML patient sample. Type of assay: cell-based, human. The conditions noted are these: 24 and 48 hours, FIG. 15.
Assay [20] concerns K562 cell line. Nature of the assay: Percentage of apoptosis, K562. Type of assay: cell-based, human. The conditions noted are these: after 24 hours.
The subject of another assay is ARO cell line. Nature of the assay: Percentage of dead cells, ARO. It counts as cell-based, human. The conditions noted are these: after 24 hours.
Where [21] appears, read: mixed lymphocytic cultures of CML patients, 8, 16, 24 and 48 hours.
The mark [22] stands for this setting: samples from patients (some Glivec resistant), 24, 48 and 72 hours, FIGS. 12-14.

T1 sequence (P00519 with tags, fused parts or gaps): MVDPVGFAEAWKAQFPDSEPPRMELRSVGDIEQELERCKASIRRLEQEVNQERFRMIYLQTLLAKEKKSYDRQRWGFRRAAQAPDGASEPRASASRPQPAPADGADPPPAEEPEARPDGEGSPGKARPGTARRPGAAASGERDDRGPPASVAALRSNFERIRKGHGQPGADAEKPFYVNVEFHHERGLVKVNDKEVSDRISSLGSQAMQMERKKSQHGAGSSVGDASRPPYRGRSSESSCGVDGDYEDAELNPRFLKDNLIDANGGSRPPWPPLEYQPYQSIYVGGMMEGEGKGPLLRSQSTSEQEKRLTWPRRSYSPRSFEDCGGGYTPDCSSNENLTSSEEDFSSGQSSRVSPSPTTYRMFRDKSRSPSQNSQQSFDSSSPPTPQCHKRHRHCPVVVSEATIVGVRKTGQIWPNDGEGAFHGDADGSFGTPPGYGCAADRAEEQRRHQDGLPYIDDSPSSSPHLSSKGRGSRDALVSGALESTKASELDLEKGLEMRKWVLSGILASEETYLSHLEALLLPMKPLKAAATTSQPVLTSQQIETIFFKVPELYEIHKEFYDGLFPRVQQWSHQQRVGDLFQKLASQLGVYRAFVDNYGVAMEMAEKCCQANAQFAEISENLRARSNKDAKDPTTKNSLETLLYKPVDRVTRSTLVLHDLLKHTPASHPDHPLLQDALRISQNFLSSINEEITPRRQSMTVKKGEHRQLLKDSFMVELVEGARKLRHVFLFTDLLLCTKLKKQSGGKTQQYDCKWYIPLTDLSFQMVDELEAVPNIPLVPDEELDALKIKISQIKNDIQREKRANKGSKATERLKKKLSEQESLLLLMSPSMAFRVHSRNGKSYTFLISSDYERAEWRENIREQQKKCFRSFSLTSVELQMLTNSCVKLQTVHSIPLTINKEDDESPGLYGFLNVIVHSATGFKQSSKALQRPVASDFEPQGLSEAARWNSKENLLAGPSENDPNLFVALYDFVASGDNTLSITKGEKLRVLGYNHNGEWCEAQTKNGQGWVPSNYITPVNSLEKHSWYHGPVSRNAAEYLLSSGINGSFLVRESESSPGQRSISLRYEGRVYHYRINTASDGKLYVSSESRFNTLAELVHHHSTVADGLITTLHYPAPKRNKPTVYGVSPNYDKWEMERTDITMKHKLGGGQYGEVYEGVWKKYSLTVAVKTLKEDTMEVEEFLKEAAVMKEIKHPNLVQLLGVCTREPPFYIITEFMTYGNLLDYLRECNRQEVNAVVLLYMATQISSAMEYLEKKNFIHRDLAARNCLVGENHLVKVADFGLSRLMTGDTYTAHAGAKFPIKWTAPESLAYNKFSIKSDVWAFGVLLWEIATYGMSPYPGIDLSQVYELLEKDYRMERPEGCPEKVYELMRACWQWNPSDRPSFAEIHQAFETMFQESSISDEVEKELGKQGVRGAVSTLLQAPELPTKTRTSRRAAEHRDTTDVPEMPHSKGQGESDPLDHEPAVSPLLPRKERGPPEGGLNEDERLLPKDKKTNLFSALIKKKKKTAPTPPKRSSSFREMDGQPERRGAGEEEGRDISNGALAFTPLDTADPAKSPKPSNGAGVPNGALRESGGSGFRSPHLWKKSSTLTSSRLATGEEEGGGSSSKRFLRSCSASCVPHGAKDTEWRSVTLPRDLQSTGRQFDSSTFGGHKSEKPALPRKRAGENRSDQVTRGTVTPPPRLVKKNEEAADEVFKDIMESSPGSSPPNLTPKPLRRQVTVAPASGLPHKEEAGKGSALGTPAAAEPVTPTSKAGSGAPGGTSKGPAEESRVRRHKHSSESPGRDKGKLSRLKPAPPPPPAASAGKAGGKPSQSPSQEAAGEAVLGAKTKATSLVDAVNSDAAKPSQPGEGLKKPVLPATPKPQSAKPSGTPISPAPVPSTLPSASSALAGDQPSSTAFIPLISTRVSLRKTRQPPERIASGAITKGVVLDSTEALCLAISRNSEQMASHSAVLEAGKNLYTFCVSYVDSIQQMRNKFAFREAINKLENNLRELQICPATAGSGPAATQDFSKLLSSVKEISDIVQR
Chain of RET kinase (P07949 29-1114): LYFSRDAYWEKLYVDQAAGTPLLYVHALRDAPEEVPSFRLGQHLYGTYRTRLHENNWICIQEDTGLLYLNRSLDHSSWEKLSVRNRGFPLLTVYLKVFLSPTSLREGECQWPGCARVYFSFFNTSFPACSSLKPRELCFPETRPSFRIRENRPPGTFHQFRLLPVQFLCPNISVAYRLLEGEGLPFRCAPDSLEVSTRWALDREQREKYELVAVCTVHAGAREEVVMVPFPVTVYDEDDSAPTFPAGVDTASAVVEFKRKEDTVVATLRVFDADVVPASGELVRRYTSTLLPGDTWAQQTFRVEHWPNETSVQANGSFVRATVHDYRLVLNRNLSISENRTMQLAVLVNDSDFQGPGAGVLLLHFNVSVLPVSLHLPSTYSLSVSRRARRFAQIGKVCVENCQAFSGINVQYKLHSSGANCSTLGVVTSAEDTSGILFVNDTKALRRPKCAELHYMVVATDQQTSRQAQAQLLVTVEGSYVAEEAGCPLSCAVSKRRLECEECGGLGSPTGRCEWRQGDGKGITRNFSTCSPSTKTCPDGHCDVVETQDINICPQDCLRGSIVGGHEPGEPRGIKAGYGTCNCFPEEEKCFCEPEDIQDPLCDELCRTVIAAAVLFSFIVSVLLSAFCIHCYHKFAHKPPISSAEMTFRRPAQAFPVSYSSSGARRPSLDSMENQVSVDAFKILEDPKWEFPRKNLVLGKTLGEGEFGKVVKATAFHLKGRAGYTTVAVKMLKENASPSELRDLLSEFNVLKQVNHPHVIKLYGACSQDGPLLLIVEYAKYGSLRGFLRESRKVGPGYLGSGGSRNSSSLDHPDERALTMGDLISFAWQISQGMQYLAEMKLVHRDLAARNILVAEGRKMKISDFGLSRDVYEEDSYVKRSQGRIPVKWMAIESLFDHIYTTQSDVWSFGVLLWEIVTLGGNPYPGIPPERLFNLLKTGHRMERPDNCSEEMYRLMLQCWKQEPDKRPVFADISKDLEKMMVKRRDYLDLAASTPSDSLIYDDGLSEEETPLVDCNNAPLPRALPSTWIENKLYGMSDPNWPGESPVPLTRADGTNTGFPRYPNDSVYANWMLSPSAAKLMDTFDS

Regarding `CCOC(=O)C1Nc2ccccc2S(=O)(=O)n2cccc21` (stereo not shown) [RS-678, ethyl 10,11-dihydropyrrolo[1,2-b][1,2,5]benzothiadiazepine-11-carboxylate 5,5-dioxide], in the assay with bcr-abl protein [1], the “down-regulation of the bcr-abl protein (Western blot)” value is “down-regulation”. Besides, the DNA fragmentation entry in assay [2] is on record as “does not occur”; in assay [8] (setting [21]), “fragmentation of the DNA”; in [8] (setting [22]) it was “DNA fragmentation”; in assay [9] it was “induction of the DNA fragmentation”; in assay [11] it was “induction of the DNA fragmentation”; in assay [13], “induction of the DNA fragmentation”. Besides, the “percentage of the apoptotic cells in comparison with non treated cells” value (in assay [3]; in assay [4]; in assay [5]; in [7]; in the assay on Glivec resistant K562) was “increase” in each case. The “time after which apoptosis is induced” value in [3] amounted to 8 h; in [4], 8 h; in assay [5], 8 h; in assay [7], 8 h; in the assay on Glivec resistant K562 it was 16 h. The “activation of caspase 9 (Western blot)” value in the assay with caspase 9 [6] was “activation”. In addition, the “apoptosis / DNA fragmentation” value in the assay with K562 cell line [10] was “able to induce apoptosis; also recorded: DNA fragmentation”. In addition, in the assay with caspase 8, the “activation of caspase 8 (Western blot)” value was “activation”. Besides, the “changes in the phosphorylation pattern of the bcr-abl protein (tyrosine-kinase assay)” value on bcr-abl protein [12] is listed as “not observed”.
As to `CC(C)(C)n1nc(-c2ccc(Cl)cc2)c2c(N)ncnc21` [PP2], in assay [14], the “sensitivity to the action of inhibitors” value was “less sensitive”. Further, the “block of the transforming activity” value in assay [15] is reported as “able to block”. For the same compound, in assay [16], the “inhibition of in vivo self-phosphorylation” value is “inhibited effectively”. Besides, the “inhibiting activity with respect to RET kinase” value at RET kinase was “strong inhibiting activity”.
Regarding `COc1cc2c(Nc3ccc(Br)cc3F)ncnc2cc1OCC1CCN(C)CC1` [ZD6474], the growth result in [17] is recorded as “no effect”. For the same compound, the proliferation result in assay [18] is listed as “reduces strongly”. In assay [14], the “sensitivity to the action of inhibitors” value is “less sensitive”. Further, the “block of the transforming activity” value in assay [15] is on record as “able to block”. Also, in assay [16], the “inhibition of in vivo self-phosphorylation” value is listed as “inhibited effectively”.
In the case of `CCOC(=O)C1c2cccn2S(=O)(=O)c2ccccc2N1C(=O)c1ccc(C)cc1` (stereo not shown) [RS-779, ethyl 10,11-dihydro-10-(4-methylbenzoyl)pyrrolo[1,2-b][1,2,5]benzothiadiazepine-11-carboxylate 5,5-dioxide], the “down-regulation of the bcr-abl protein (Western blot)” value in the assay on bcr-abl protein [1] is on record as “down-regulation”. Moreover, the DNA fragmentation entry in assay [2] is on record as “does not occur”; in assay [8] (setting [21]), “fragmentation of the DNA”; in assay [8] (setting [22]), “DNA fragmentation”; in assay [9] it was “induction of the DNA fragmentation”; in [11], “induction of the DNA fragmentation”; in assay [13] it was “induction of the DNA fragmentation”. Moreover, the percentage of apoptosis in the assay on NPA cell line amounted to 50%; in the assay with K562 cell line [20] it was 70%. For the same compound, the “percentage of the apoptotic cells in comparison with non treated cells” value (in assay [3]; in assay [4]; in assay [5]; in assay [7]; in the assay on Glivec resistant K562) was “increase” in each case. Also, the “time after which apoptosis is induced” value in assay [3] was determined as 8 h; in [4], 8 h; in assay [5], 8 h; in [7], 8 h; with Glivec resistant K562, 16 h. For the same compound, the figures for the “activation of caspase 9 (Western blot)” value in the assay on caspase 9 [6] and in the assay on caspase 9 [19] were “activation” and “strong activation”, respectively. In addition, in the assay with K562 cell line [10], the “apoptosis / DNA fragmentation” value is given as “able to induce apoptosis; also recorded: DNA fragmentation”. The “activation of caspase 8 (Western blot)” value with caspase 8 is recorded as “activation”. Moreover, the “changes in the phosphorylation pattern of the bcr-abl protein (tyrosine-kinase assay)” value at bcr-abl protein [12] is on record as “not observed”. The “percentage of dead cells” value with ARO cell line stood at 45%.
